Experimental data taken from the NIST ThermoML archive (doi:10.1016/j.jct.2004.10.005).

Assay: molar heat capacity at saturation pressure
Conditions: Vacuum adiabatic calorimetry

BrC12CC3CC(CC(C3)C1)C2 [1-bromotricyclo[3.3.1.1(3,7)]decane]
Conditions	molar heat capacity [J/K/mol]
5.98 K, Crystal 4	1.102
6.34 K, Crystal 4	1.301
6.73 K, Crystal 4	1.56
7.05 K, Crystal 4	1.776
7.4 K, Crystal 4	2.048
7.78 K, Crystal 4	2.391
8.34 K, Crystal 4	2.94
8.96 K, Crystal 4	3.558
9.37 K, Crystal 4	4.013
9.8 K, Crystal 4	4.489
10.27 K, Crystal 4	5.11
10.71 K, Crystal 4	5.643
11.11 K, Crystal 4	6.154
11.51 K, Crystal 4	6.677
11.92 K, Crystal 4	7.254
12.35 K, Crystal 4	7.849
12.82 K, Crystal 4	8.366
13.25 K, Crystal 4	9.058
14.09 K, Crystal 4	10.21
14.56 K, Crystal 4	10.84
15 K, Crystal 4	11.48
15.42 K, Crystal 4	12.01
15.87 K, Crystal 4	12.79
16.34 K, Crystal 4	13.48
16.79 K, Crystal 4	14.11
17.32 K, Crystal 4	14.74
17.91 K, Crystal 4	15.58
18.48 K, Crystal 4	16.3
19.01 K, Crystal 4	17.14
19.61 K, Crystal 4	17.85
20.29 K, Crystal 4	18.72
20.93 K, Crystal 4	19.58
21.63 K, Crystal 4	20.43
22.39 K, Crystal 4	21.39
23.1 K, Crystal 4	22.23
23.9 K, Crystal 4	23.12
24.76 K, Crystal 4	24.04
25.69 K, Crystal 4	25.07
26.66 K, Crystal 4	26.14
27.58 K, Crystal 4	27.16
28.56 K, Crystal 4	28.01
29.52 K, Crystal 4	28.99
29.57 K, Crystal 4	29.29
30.13 K, Crystal 4	29.69
30.42 K, Crystal 4	30.4
30.62 K, Crystal 4	30.95
30.71 K, Crystal 4	31.25
31.02 K, Crystal 4	33.37
31.27 K, Crystal 3	31.25
31.56 K, Crystal 3	31.24
31.81 K, Crystal 3	31.34
32.25 K, Crystal 3	31.61
33.06 K, Crystal 3	32.35
33.28 K, Crystal 3	32.47
34.66 K, Crystal 3	33.75
36.35 K, Crystal 3	35.07
38.12 K, Crystal 3	36.42
39.98 K, Crystal 3	37.78
41.9 K, Crystal 3	39.06
43.96 K, Crystal 3	40.39
46.12 K, Crystal 3	41.85
48.32 K, Crystal 3	43.17
50.74 K, Crystal 3	44.52
53.31 K, Crystal 3	45.98
55.82 K, Crystal 3	47.36
58.21 K, Crystal 3	48.67
60.62 K, Crystal 3	50.13
63.03 K, Crystal 3	51.45
65.43 K, Crystal 3	52.6
67.86 K, Crystal 3	54.08
70.3 K, Crystal 3	55.24
72.8 K, Crystal 3	56.68
75.3 K, Crystal 3	57.96
77.74 K, Crystal 3	59.21
80.19 K, Crystal 3	60.74
82.69 K, Crystal 3	61.79
85.17 K, Crystal 3	63.27
87.66 K, Crystal 3	64.58
90.17 K, Crystal 3	65.86
92.68 K, Crystal 3	67.39
95.2 K, Crystal 3	68.53
97.74 K, Crystal 3	70.12
100.3 K, Crystal 3	71.52
100.96 K, Crystal 3	71.76
102.83 K, Crystal 3	72.73
104.15 K, Crystal 3	73.63
105.3 K, Crystal 3	74.09
107.32 K, Crystal 3	75.22
110.3 K, Crystal 3	76.73
113.21 K, Crystal 3	78.44
116.14 K, Crystal 3	79.82
119.1 K, Crystal 3	81.75
122.01 K, Crystal 3	83.28
124.86 K, Crystal 3	84.61
127.91 K, Crystal 3	86.56
131.28 K, Crystal 3	88.26
134.63 K, Crystal 3	90.38
137.93 K, Crystal 3	91.96
141.17 K, Crystal 3	93.89
144.35 K, Crystal 3	95.86
147.49 K, Crystal 3	97.33
150.64 K, Crystal 3	99.37
153.81 K, Crystal 3	101.4
156.99 K, Crystal 3	103
160.16 K, Crystal 3	104.9
160.53 K, Crystal 3	105.5
163.7 K, Crystal 3	107.4
166.86 K, Crystal 3	109.4
169.99 K, Crystal 3	111.2
173.09 K, Crystal 3	113.3
176.19 K, Crystal 3	115.1
179.34 K, Crystal 3	117.2
182.56 K, Crystal 3	119.4
185.78 K, Crystal 3	121.5
189.07 K, Crystal 3	123.6
192.43 K, Crystal 3	126.2
195.86 K, Crystal 3	128.7
199.38 K, Crystal 3	130.9
202.85 K, Crystal 3	133.7
206.29 K, Crystal 3	135.9
209.76 K, Crystal 3	138.8
213.19 K, Crystal 3	141.4
216.58 K, Crystal 3	143.7
220.01 K, Crystal 3	146.7
223.4 K, Crystal 3	149.2
226.82 K, Crystal 3	152.2
230.32 K, Crystal 3	155.2
230.97 K, Crystal 3	155.8
234.32 K, Crystal 3	158.8
237.7 K, Crystal 3	162.3
241 K, Crystal 3	166.2
241.09 K, Crystal 3	165.9
244.38 K, Crystal 3	169.3
244.57 K, Crystal 3	169.7
247.65 K, Crystal 3	173
248.16 K, Crystal 3	173.6
251.11 K, Crystal 3	177.1
251.71 K, Crystal 3	177.8
254.61 K, Crystal 3	181.5
255.15 K, Crystal 3	182.1
257.99 K, Crystal 3	186.2
258.5 K, Crystal 3	187.1
261.32 K, Crystal 3	192.1
261.93 K, Crystal 3	193.3
264.6 K, Crystal 3	198.2
265.32 K, Crystal 3	200.1
267.83 K, Crystal 3	205.5
268.59 K, Crystal 3	207.2
271.04 K, Crystal 3	214.7
271.85 K, Crystal 3	217.2
274.2 K, Crystal 3	227.6
275.09 K, Crystal 3	231.6
277.23 K, Crystal 3	248.5
278.12 K, Crystal 3	258.4
279.76 K, Crystal 3	284.9
280.08 K, Crystal 3	308.9
280.17 K, Crystal 3	297.9
280.56 K, Crystal 3	309.4
280.94 K, Crystal 3	336.3
281.3 K, Crystal 3	377.6
281.63 K, Crystal 3	422.2
281.93 K, Crystal 3	523.4
282.18 K, Crystal 3	643.2
282.41 K, Crystal 2	586.3
282.52 K, Crystal 2	470.3
282.69 K, Crystal 2	384.2
283.04 K, Crystal 2	278.4
283.48 K, Crystal 2	248.5
283.93 K, Crystal 2	226.3
284.68 K, Crystal 2	219.3
285.09 K, Crystal 2	222.5
286.24 K, Crystal 2	214.2
288.26 K, Crystal 2	209.5
290.59 K, Crystal 2	211.1
291.43 K, Crystal 2	211.7
293.15 K, Crystal 2	212.4
294.62 K, Crystal 2	213.4
295.8 K, Crystal 2	213.7
298.44 K, Crystal 2	215.6
298.96 K, Crystal 2	215.9
301.06 K, Crystal 2	217.3
303.6 K, Crystal 2	220.7
306.07 K, Crystal 2	236.7
308.13 K, Crystal 2	437.7
312.39 K, Crystal 1	249
314.9 K, Crystal 1	250.6
314.98 K, Crystal 1	251.1
317.39 K, Crystal 1	253.5
317.63 K, Crystal 1	254
